How the values were obtained:
EGFR = EGFR (Homo sapiens (Human), UniProt P00533); test: HTRF KinEASE-TK kinase assay, EGFR; assay type: biochemical; conditions: 3 h preincubation; for remaining activity at 1 µM: 1 μM compound, read-out: % EGFR Remaining activity vs DMSO (1 μM, 3 h); for remaining activity at 10 µM: 10 μM compound, read-out: % EGFR Remaining activity vs DMSO (10 μM, 3 h); for IC50: dose response, read-out: EGFR Inhibition IC50
Outline: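 HTRF KinEASE-TK format: EGFR pre-incubated with compound at 1 and 10 uM final (0.5% DMSO) in kinase buffer with 2 mM MnCl2, 5 mM MgCl2 and 1 mM TCEP.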

JAK3 = JAK3 (Homo sapiens (Human), UniProt P52333); test: HTRF KinEASE-TK kinase assay, JAK3; assay type: biochemical; conditions: for remaining activity at 1 µM: read-out: % JAK3 Remaining activity vs DMSO (1 μM, 3 h); for remaining activity at 10 µM: read-out: % JAK3 Remaining activity vs DMSO (10 μM, 3 h); for IC50: dose response
JAK3, sequence (P52333 781-1124): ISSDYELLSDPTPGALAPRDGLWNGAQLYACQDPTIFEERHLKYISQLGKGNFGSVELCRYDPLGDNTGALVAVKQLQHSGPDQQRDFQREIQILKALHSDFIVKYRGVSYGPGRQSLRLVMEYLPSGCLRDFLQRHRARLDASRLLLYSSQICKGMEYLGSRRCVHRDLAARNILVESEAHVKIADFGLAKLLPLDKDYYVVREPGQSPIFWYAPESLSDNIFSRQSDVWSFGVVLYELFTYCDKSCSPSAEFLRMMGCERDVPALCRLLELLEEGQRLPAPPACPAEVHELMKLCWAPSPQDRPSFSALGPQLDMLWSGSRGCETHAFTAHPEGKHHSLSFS
Outline: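 Promega JAK3 at 0.21 nM was preincubated with inhibitor for 3 h at room temperature before biotinylated substrate and ATP were added. The reaction was stopped with EDTA detection buffer containing 31.25 nM SA-XL665 and Eu-antibody. After 60 min, the HTRF 665/620 nm emission ratio reflected substrate phosphorylation.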

BMX = BMX (Homo sapiens (Human), UniProt P51813); test: HTRF KinEASE-TK kinase assay, BMX; assay type: biochemical; conditions: for remaining activity at 1 µM: 1 uM compound; for remaining activity at 1 µM / remaining activity at 10 µM: 3 h preincubation; for remaining activity at 10 µM: 10 uM compound; for IC50: dose response
BMX, sequence (P51813 whole entry): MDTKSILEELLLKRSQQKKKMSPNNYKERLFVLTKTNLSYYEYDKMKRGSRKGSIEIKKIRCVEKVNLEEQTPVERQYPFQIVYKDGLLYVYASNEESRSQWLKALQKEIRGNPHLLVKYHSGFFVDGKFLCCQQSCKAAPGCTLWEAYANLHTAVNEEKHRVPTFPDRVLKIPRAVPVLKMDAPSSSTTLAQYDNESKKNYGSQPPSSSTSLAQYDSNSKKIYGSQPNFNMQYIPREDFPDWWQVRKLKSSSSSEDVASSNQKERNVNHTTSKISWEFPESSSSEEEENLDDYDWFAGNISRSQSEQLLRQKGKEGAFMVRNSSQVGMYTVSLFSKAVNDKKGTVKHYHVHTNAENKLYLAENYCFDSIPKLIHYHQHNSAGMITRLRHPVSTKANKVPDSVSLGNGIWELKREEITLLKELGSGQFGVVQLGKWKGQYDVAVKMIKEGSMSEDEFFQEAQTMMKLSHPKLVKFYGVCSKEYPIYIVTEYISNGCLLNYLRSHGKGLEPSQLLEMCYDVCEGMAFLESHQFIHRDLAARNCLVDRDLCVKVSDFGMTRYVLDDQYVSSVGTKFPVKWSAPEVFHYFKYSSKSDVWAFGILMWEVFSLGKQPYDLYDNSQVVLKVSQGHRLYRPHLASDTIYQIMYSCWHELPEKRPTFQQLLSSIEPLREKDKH
Outline: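 Purchased BMX (0.333 ng/ul, 3.03 nM) was preincubated with or without inhibitor for 3 h at room temperature, then biotinylated substrate and ATP were added. Reactions were stopped with EDTA-containing buffer holding 31.25 nM SA-XL665 and Eu-antibody, and after 60 min phosphorylation was read as the HTRF 665/620 nm emission ratio.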

FGFR4 = FGFR4 (Homo sapiens (Human), UniProt P22455); test: HTRF KinEASE-TK kinase assay, FGFR4; assay type: biochemical; conditions: for remaining activity at 1 µM: read-out: % FGFR4 Remaining activity vs DMSO (1 μM, 3 h); for remaining activity at 10 µM: read-out: % FGFR4 Remaining activity vs DMSO (10 μM, 3 h)
FGFR4, sequence (P22455 22-802): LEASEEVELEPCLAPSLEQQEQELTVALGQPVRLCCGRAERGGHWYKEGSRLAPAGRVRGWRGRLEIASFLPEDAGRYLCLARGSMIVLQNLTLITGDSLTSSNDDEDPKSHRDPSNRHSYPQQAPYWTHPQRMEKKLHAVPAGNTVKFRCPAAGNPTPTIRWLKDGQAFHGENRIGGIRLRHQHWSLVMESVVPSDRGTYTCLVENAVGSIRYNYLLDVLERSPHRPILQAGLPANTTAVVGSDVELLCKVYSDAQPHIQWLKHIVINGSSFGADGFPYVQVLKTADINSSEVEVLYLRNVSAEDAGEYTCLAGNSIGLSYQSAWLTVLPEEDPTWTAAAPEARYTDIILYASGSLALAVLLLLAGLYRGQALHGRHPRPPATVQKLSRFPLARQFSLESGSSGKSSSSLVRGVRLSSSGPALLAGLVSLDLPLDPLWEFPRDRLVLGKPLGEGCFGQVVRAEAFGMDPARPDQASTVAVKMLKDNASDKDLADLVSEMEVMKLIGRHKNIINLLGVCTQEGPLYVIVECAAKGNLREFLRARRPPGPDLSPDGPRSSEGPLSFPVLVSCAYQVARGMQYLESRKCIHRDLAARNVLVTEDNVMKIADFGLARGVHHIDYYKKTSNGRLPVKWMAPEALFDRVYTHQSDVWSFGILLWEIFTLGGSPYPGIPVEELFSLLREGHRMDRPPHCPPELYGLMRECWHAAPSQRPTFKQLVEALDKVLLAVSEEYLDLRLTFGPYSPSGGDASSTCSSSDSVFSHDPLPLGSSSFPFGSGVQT
Outline: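 Promega FGFR4 at 0.333 ng/ul (5.12 nM) preincubated with or without inhibitor for 3 h at room temperature, then reaction started with biotinylated substrate and ATP. Stopped with EDTA detection buffer containing 31.25 nM SA-XL665 and Eu-antibody; after 60 min, HTRF 665/620 nm ratio read as substrate phosphorylation.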

BTK [1] = biological target: T1, BTK (Homo sapiens (Human), UniProt Q06187); test: HTRF KinEASE-TK kinase assay, BTK; assay type: biochemical; conditions: 3 h preincubation; for remaining activity at 1 µM: 1 μM compound, read-out: % BTK Remaining activity vs DMSO (1 μM, 3 h); for remaining activity at 10 µM: 10 μM compound, read-out: % BTK Remaining activity vs DMSO (10 μM, 3 h)
T1 sequence (Q06187 whole entry): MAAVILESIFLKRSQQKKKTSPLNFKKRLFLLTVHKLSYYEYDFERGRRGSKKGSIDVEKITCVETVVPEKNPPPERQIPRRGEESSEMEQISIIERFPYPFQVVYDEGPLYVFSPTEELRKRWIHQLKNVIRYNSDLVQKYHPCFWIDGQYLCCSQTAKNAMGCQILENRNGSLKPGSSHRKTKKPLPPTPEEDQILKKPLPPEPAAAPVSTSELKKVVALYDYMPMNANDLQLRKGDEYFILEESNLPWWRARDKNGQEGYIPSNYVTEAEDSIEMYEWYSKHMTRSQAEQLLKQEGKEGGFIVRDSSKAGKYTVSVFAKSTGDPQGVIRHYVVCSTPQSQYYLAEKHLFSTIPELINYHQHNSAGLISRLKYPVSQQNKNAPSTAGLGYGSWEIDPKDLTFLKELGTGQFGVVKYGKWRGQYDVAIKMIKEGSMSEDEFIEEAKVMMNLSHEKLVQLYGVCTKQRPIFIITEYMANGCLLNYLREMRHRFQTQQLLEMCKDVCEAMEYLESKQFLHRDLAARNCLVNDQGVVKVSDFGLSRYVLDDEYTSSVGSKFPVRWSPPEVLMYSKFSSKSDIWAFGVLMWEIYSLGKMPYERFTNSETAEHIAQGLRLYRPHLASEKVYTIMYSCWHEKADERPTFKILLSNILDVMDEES
Outline: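 BTK activity in HTRF KinEASE-TK format, buffer containing 10 mM MnCl2, 5 mM MgCl2, 1 uM ATPγS and 1 mM TCEP; 45 min reaction with biotinylated substrate and ATP.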

BTK [2] = biological target: T1, BTK; test: Ramos RA1 cell lysis and immunoassay, phospho-BTK (Y223) inhibition; assay type: cell-based; set-up: key: X: BTK bound and autophosphoration of BTK inhibited in cells; conditions: RAMOS cells, compound concentration 1 μM
Outline: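 Ramos RA1 cells treated with compound or DMSO for 24 h at 37° C., lysed in RIPA, analysed by Simple Western. Total BTK normalised to β-actin, pBTK (Y223) to total-protein reagent; both expressed relative to DMSO control.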

RIPK2 = RIPK2 (Homo sapiens (Human), UniProt O43353); test: In vitro RIPK2 inhibition; assay type: biochemical; conditions: for remaining activity at 1 µM: read-out: % RIPK2 Remaining activity vs DMSO (1 μM, 3 h); for remaining activity at 10 µM: read-out: % RIPK2 Remaining activity vs DMSO (10 μM, 3 h)
RIPK2, sequence (O43353 whole entry, species assumed): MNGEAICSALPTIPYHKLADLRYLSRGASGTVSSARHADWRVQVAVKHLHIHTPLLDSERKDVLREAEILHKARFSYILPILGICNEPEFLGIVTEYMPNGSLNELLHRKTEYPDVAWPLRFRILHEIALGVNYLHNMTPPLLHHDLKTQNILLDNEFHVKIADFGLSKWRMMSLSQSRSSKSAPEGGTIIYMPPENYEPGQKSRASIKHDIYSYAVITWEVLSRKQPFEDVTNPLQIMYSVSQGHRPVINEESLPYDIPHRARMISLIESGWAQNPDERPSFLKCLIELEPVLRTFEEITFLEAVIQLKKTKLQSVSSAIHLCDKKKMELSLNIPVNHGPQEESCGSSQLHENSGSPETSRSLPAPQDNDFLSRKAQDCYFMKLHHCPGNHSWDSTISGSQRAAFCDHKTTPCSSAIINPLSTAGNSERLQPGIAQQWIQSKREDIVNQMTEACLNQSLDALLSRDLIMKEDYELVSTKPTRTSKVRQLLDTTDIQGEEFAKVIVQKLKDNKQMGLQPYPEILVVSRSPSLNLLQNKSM

EGFR, sequence (P00533 25-1210): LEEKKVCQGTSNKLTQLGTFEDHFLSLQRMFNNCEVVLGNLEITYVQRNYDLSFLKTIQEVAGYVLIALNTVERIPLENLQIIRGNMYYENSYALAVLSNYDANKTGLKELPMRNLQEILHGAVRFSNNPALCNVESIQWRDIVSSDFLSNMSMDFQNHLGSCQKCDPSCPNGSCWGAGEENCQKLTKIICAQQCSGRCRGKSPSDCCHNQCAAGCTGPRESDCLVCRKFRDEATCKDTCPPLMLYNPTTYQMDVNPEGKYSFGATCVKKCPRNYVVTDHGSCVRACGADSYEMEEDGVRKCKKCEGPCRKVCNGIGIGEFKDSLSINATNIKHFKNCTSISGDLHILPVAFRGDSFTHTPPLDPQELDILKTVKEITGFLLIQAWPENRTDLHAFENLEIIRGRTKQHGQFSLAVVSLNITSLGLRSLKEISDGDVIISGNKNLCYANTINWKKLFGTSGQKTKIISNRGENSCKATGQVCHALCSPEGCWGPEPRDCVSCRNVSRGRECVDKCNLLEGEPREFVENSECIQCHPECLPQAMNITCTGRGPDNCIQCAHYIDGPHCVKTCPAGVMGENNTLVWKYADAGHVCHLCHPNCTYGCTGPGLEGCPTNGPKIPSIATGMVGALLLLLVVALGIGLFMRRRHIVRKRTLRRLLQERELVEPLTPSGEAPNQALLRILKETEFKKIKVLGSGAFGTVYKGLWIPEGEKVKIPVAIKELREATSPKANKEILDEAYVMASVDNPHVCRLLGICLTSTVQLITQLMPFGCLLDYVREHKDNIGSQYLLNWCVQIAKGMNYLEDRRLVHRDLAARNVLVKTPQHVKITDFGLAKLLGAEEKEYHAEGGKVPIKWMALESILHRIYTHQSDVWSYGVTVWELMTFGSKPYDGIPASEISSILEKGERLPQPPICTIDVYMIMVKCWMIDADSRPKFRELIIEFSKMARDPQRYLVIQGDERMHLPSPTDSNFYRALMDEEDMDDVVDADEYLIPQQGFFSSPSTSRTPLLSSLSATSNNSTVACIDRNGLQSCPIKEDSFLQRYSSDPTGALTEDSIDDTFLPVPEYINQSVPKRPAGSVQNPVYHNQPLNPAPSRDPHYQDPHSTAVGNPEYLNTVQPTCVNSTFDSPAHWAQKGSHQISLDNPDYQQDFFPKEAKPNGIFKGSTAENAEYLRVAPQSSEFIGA

remaining activity at 1 µM (EGFR) | remaining activity at 10 µM (EGFR) | IC50 (EGFR) | remaining activity at 1 µM (JAK3) | remaining activity at 10 µM (JAK3) | remaining activity at 1 µM (BMX) | remaining activity at 10 µM (BMX) | remaining activity at 1 µM (FGFR4) | remaining activity at 10 µM (FGFR4) | remaining activity at 1 µM (BTK [1]) | remaining activity at 10 µM (BTK [1]) | pBTK inhibition (RAMOS, 24 h) (BTK [2]) | IC50 (JAK3) | IC50 (BMX) | IC50 (BTK [1]; dose response, read-out: BTK Inhibition IC50) | remaining activity at 1 µM (RIPK2) | remaining activity at 10 µM (RIPK2) | IC50 (FGFR4; dose response) | SMILES
< 50% | < 50% | < 1000 nM | 50 to 90% | < 50% | 50 to 90% | < 50% | > 90% | > 90% | < 50% | < 50% | X |  |  |  |  |  |  | CS(=O)(=O)c1c(F)c(F)c(F)c(F)c1C(=O)Nc1cc2c(Nc3ccc(F)c(Cl)c3)ncnc2cc1O[C@H]1CCOC1 [Compound I-5, (S)—N-(4-((3-chloro-4-fluorophenyl)amino)-7-((tetrahydrofuran-3-yl)oxy)quinazolin-6-yl)-2,3,4,5-tetrafluoro-6-(methylsulfonyl)benzamide]
> 90% | 50 to 90% |  | > 90% | < 50% | < 50% | < 50% | < 50% | < 50% | < 50% | < 50% | X |  |  |  |  |  |  | COCCOc1ccc(Nc2ncc(F)c(Nc3cccc(NC(=O)c4c(F)c(F)c(F)c(F)c4[S@+](C)[O-])c3)n2)cc1 (stereo in doubt) [Compound I-62, 2,3,4,5-tetrafluoro-N-(3-((5-fluoro-2-((4-(2-methoxyethoxy)phenyl)amino)pyrimidin-4-yl)amino)phenyl)-6-(methylsulfinyl)benzamide]
< 50% | < 50% | < 1000 nM | > 90% | > 90% | > 90% | > 90% | > 90% | > 90% | > 90% | < 50% |  |  |  |  |  |  |  | C[S+]([O-])c1c(F)c(F)c(F)c(F)c1Nc1cc2c(Nc3ccc(F)c(Cl)c3)ncnc2cc1O[C@H]1CCOC1 (stereo partly drawn) [Compound I-4, N^4-(3-chloro-4-fluorophenyl)-N^6-(2,3,4,5-tetrafluoro-6-(methylsulfinyl)phenyl)-7-(((S)-tetrahydrofuran-3-yl)oxy)quinazoline-4,6-diamine]
> 90% | > 90% |  | 50 to 90% | < 50% | < 50% | < 50% | < 50% | < 50% | < 50% | < 50% | X |  |  |  |  |  |  | COCCOc1ccc(Nc2ncc(F)c(Nc3cccc(Nc4c(F)c(F)c(F)c(F)c4S(C)(=O)=O)c3)n2)cc1 [Compound I-64, 5-fluoro-N^2-(4-(2-methoxyethoxy)phenyl)-N^4-(3-((2,3,4,5-tetrafluoro-6-(methylsulfonyl)phenyl)amino)phenyl)pyrimidine-2,4-diamine]
> 90% | > 90% |  | > 90% | 50 to 90% | < 50% | < 50% | > 90% | > 90% | < 50% | 50 to 90% | X |  |  |  |  |  |  | COCCOc1ccc(Nc2ncc(F)c(Nc3cccc(Nc4c(F)c(F)c(F)c(F)c4[S@+](C)[O-])c3)n2)cc1 (stereo in doubt) [Compound I-63, 5-fluoro-N^2-(4-(2-methoxyethoxy)phenyl)-N^4-(3-((2,3,4,5-tetrafluoro-6-(methylsulfinyl)phenyl)amino)phenyl)pyrimidine-2,4-diamine]
> 90% | 50 to 90% |  | < 50% | < 50% | < 50% | < 50% | > 90% | 50 to 90% | < 50% | < 50% | X | > 1000 nM | < 1000 nM | < 1000 nM |  |  |  | CS(=O)(=O)c1c(F)c(F)c(F)c(F)c1CNCCNc1ncnc2[nH]ccc12 [Compound I-50, N^1-(7H-pyrrolo[2,3-d]pyrimidin-4-yl)-N2-(2,3,4,5-tetrafluoro-6-(methylsulfonyl)benzyl) ethane-1,2-diamine]
> 90% | > 90% |  | < 50% | < 50% | < 50% | < 50% | 50 to 90% | 50 to 90% | < 50% | < 50% |  | < 1000 nM | < 1000 nM |  | < 50% | < 50% |  | CN(C)S(=O)(=O)c1c(F)c(F)c(F)c(F)c1C(=O)NCCNc1ncnc2[nH]ccc12 [Compound I-47, N-(2-((7H-pyrrolo[2,3-d]pyrimidin-4-yl)amino)ethyl)-2-(N,N-dimethylsulfamoyl)-3,4,5,6-tetrafluorobenzamide]
< 50% | < 50% | < 1000 nM | 50 to 90% | < 50% | 50 to 90% | > 90% | > 90% | 50 to 90% | > 90% | 50 to 90% |  |  |  |  |  |  |  | CS(=O)(=O)c1c(F)c(F)c(F)c(F)c1Nc1cc2c(Nc3ccc(F)c(Cl)c3)ncnc2cc1O[C@H]1CCOC1 [Compound I-2, (S)—N^4-(3-chloro-4-fluorophenyl)-N^6-(2,3,4,5-tetrafluoro-6-(methylsulfonyl)phenyl)-7-((tetrahydrofuran-3-yl)oxy)quinazoline-4,6-diamine]
> 90% | > 90% |  | 50 to 90% | < 50% | < 50% | < 50% | > 90% | 50 to 90% | < 50% | < 50% |  |  | < 1000 nM |  | < 50% | < 50% |  | NS(=O)(=O)c1c(F)c(F)c(F)c(F)c1C(=O)NCCNc1ncnc2[nH]ccc12 [Compound I-48]
> 90% | < 50% |  | < 50% | < 50% | < 50% | < 50% | < 50% | < 50% | < 50% | < 50% | X | < 1000 nM |  |  |  |  | < 1000 nM | COCCOc1ccc(Nc2ncc(F)c(Nc3cccc(NC(=O)c4c(F)c(F)c(F)c(F)c4S(C)(=O)=O)c3)n2)cc1 [Compound I-61, 2,3,4,5-tetrafluoro-N-(3-((5-fluoro-2-((4-(2-methoxyethoxy)phenyl)amino)pyrimidin-4-yl)amino)phenyl)-6-(methylsulfonyl)benzamide]
< 50% | < 50% | < 1000 nM | > 90% | > 90% | 50 to 90% | > 90% | > 90% | > 90% | 50 to 90% | 50 to 90% | X |  |  |  |  |  |  | C[S+]([O-])c1c(F)c(F)c(F)c(F)c1C(=O)Nc1cc2c(Nc3ccc(F)c(Cl)c3)ncnc2cc1OC1CCOC1 (stereo not shown) [Compound I-3]

Source: patent US20240018153A1, “BENZENESULFONAMIDE DERIVATIVES AND USES THEREOF” (2692372 ONTARIO, INC., priority 2020, published 2024)
